Assay results from patent US20230271928A1, “NAPHTHYLUREA COMPOUND, METHODS OF PREPARATION AND USE THEREOF” (Henan Radiomedical Science and Technology Co., Ltd., priority 2021, published 2023).
pIC50: −log10 of the molar value. Read-outs that look alike come from different tables or passages of the source.

Tests used:
Assay type in all cases: cell-based
SMMC-7721 cells = assay: MTT proliferation assay, SMMC-7721; details: Homo sapiens; SMMC-7721, MTT, 48 h
Method: (§1) Difference cell lines HepG2, SMMC-7721, HuH-7, MCF-7, MDA-MB-231, MDA-MB-468, PC9, PC9-AR, PC9-GR, Jurkat and Molt-13 were harvested during log phase; the number of the cells in an original cell suspension was counted; the original cell suspension was diluted to a density of 5×10^4 cells/mL; for a 96-well plate, 100 uL of the cell suspension was transferred to each well; DMSO is used as solvent for negative control; (2E)-3-(6-bromo-2-pyridyl)-2-cyano-N-[(1S)-1-phenylethyl]-2-acrylamide (WP1066CAS: 857064-38-1, with a formula
(§2) or gefitinib was used as a positive control; the naphthylurea compound ID1120B-1 and the phosphate ID1120B-P thereof were diluted with DMSO and added into the 96-well plate to achieve a final concentration of 0.1, 0.3, 1, 3, 10, 30, 100 and 300 μmol/L in each well; the 96-well plate was incubated for 48 h; 10 μL of MTT solvent (5 mg/mL) was added into each well; the 96-well plate was incubated at 37° C. for 4 h; a culture supernatant was discarded; 150 μL of DMSO was added into each well; the 96-well plate was shaken for 10 min on a plate shaker; an optical density (OD) of the resulting product was measured at a wavelength of 490 nm by an ELISA reader. Test results were recorded. A cell growth curve was drawn with the dosage of each compound as abscissa and the absorbance value as ordinate. The half maximum inhibition rates (IC50 value) of the cancer cells were shown in Table 1, FIGS. 1A-1J and FIGS. 2A-2J.

HepG2 cells [1] = assay: MTT proliferation assay, HepG2; details: Homo sapiens
Method: as §1, §2

HuH-7 cells = assay: MTT proliferation assay, HuH-7; details: Homo sapiens; HuH-7, MTT, 48 h
Method: as §1, §2

MDA-MB-468 cells = assay: MTT proliferation assay, MDA-MB-468; details: Homo sapiens, MDA-MB-468, MTT
Method: (§3) Test results were recorded. A cell growth curve was drawn with the dosage of each compound as abscissa and the absorbance value as ordinate.

MCF-7 cells = assay: MTT proliferation assay, MCF-7; details: Homo sapiens
Method: as §3

HepG2 cells [2] = assay: Cell cycle analysis by PI flow cytometry; details: HepG2, 48 h
Method: HepG2 cells were harvested during log phase, digested, centrifuged and prepared into a single cell suspension; the number of the cells in the single cell suspension was counted; the cells were seeded into a 12-well plate, with 2×10^5 cells per well; three wells were used as a parallel control design; 16 hours after seeding, the cells were treated with the compounds in a concentration gradient for 48 h; the cells were digested with trypsin and resuspended; the number of the cells in the cell suspension was counted and diluted to 5×10^5 cells/mL; after the digestion was completed, the cell suspension was centrifuged; the supernatant was discarded; the pellet was washed twice with PBS (each time the mixture was centrifuged 2000 rpm for 5 min); the supernatant was discarded; a fixative comprising 980 μL of 70% cold ethanol and 20 μL of 5% BSA (a small amount of BSA reduces cellular stress and damage) was added to each microcentrifuge tube, so that the cells were fixed overnight at 4° C.; the fixative is discarded; the cells were washed three times in PBS to remove residual fixative (each time the mixture was centrifuged at 1000 rpm for 3 min); a DNA quantification kit is used to measure the content of DNA according to the following instruction (Suo Laibao, Beijing): each sample was incubated in 100 μL of RNase A at 37° C. for 30 min; 500 μL of PI (propidium iodide) was added to each sample; each sample was incubated at room temperature for 30 min in the dark; the cell cycle was analyzed by a flow cytometry and a ModFit software; and Graphpad prism 6.0 was used to estimate the percentage of a cell population in the different phases of the cell cycle.

MDA-MB-231 cells = assay: MTT proliferation assay, MDA-MB-231; details: Homo sapiens; MDA-MB-231, MTT, 48 h
Method: as §3

[3] = MCF7, MCF-7, MTT, 48 h, read-out: IC50
[4] = compared with negative control (DMSO)

SMILES	pIC50 (HepG2 cells [1]; HepG2, 48 h)	pIC50 (MDA-MB-468 cells; MDA-MB-468, 48 h)	also measured
O=C(NCc1ccccc1)Nc1ccc(OCc2ccc(OCCN3CCCCC3)c(Cl)c2)c2ccccc12 [ID1120C-1]	–	–	pIC50 (SMMC-7721 cells): 5.17
COc1ccc(NC(=O)Nc2ccc(OCc3ccc(OCCN4CCCCC4)cc3)c3ccccc23)cc1Cl [IY1225B-1]	5.71	–	–
O=C(Nc1ccc(Cl)c(F)c1)Nc1ccc(OCc2ccc(OCCN3CCCCC3)cc2)c2ccccc12 [IY1229C-1]	5.19	–	–
O=C(NCc1ccc(OC(F)(F)F)cc1)Nc1ccc(OCc2ccc(OCCN3CCCCC3)cc2)c2ccccc12 [ID210118D-1]	4.43	–	pIC50 (HuH-7 cells): 4.58
O=C(Nc1ncccc1Cl)Nc1ccc(OCc2ccc(OCCN3CCCCC3)cc2)c2ccccc12 [ID210119B-1]	4.58	4.58	–
O=C(Nc1ccc(Cl)cc1)Nc1ccc(OCc2ccc(OCCN3CCCCC3)cc2)c2ccccc12 [IY1229D-1]	–	–	pIC50 (MDA-MB-468 cells; 48 h): 4.85; pIC50 (HepG2 cells [1]; 48 h): 4.91
O=C(Nc1ccc(-c2ccccc2)cc1)Nc1ccc(OCc2ccc(OCCN3CCCCC3)cc2)c2ccccc12 [IY210128B-1]	–	4.20	–
O=C(NCc1ccc(Cl)c(C(F)(F)F)c1)Nc1ccc(OCc2ccc(OCCN3CCCCC3)cc2)c2ccccc12 [ID210114B-1]	5.40	–	pIC50 (MCF-7 cells; [3]): 4.88
S=C(NCc1ccccc1)Nc1ccc(OCc2ccc(OCCN3CCCCC3)cc2)c2ccccc12 [IY1207A-1]	–	–	pIC50 (MCF-7 cells; [3]): 4.61
O=C(Nc1ccc(OCc2ccc(OCCN3CCCCC3)cc2Cl)c2ccccc12)NC1CCCCC1 [ID1215C-1]	–	–	pIC50 (MDA-MB-468 cells; 48 h): 5.46
O=C(NCc1cccc(Cl)c1)Nc1ccc(OCc2ccc(OCCN3CCCCC3)cc2)c2ccccc12 [ID210106D-1]	5.28	–	pIC50 (HuH-7 cells): 5.17
O=C(Nc1ccc(F)cc1)Nc1ccc(OCc2ccc(OCCN3CCCCC3)c(Br)c2)c2ccccc12 [IY210105A-1]	–	4.69	–
O=C(NCc1ccc(F)c(Cl)c1)Nc1ccc(OCc2ccc(OCCN3CCCCC3)cc2)c2ccccc12 [ID210115B-1]	5.33	–	pIC50 (MCF-7 cells; [3]): 4.41
O=C(NCCc1ccccc1)Nc1ccc(OCc2ccc(OCCN3CCCCC3)cc2)c2ccccc12 [ID1210B-1]	–	–	pIC50 (MCF-7 cells; MCF7, 48 h): 5.09
O=C(Nc1ccc(Cl)c(Cl)c1)Nc1ccc(OCc2ccc(OCCN3CCCCC3)cc2)c2ccccc12 [ID1214B-1]	6.06	3.16	induction of cells in the G2/M phase (HepG2 cells [2]; [4]): dramatically induce the liver cancer cells in the G2/M phase in a dose-dependent manner; percentage of cells in the G1/S phase (HepG2 cells [2]; [4]): significantly decrease the percentage of the liver cancer cells in the G1/S phase; length of the G2 phase, % of the cell cycle, after treatment (HepG2 cells [2]; value reached after treatment (increase from DMSO control value)): 17.54%; pIC50 (MCF-7 cells; [3]): 4.05; pIC50 (SMMC-7721 cells): 5.06; pIC50 (MDA-MB-231 cells): 3.94
O=C(NCc1ccc(F)cc1F)Nc1ccc(OCc2ccc(OCCN3CCCCC3)cc2)c2ccccc12 [IY210118B-1]	–	–	pIC50 (SMMC-7721 cells): 4.63
O=C(Nc1ccc(OCc2ccc(OCCN3CCCCC3)cc2)c2ccccc12)NC1CCCC1 [ID1217B-1]	4.14	4.47	–
COc1ccc(NC(=O)Nc2ccc(OCc3ccc(OCCN4CCCCC4)c(Cl)c3)c3ccccc23)cc1 [ID210110C-1]	–	5.21	–
O=C(Nc1ccc(F)cc1)Nc1ccc(OCc2ccc(OCCN3CCCCC3)cc2)c2ccccc12 [IY210105D-1]	5.42	5.42	–

SMILES	pIC50 (HepG2 cells [1]; HepG2, 48 h)	pIC50 (MDA-MB-468 cells; MDA-MB-468, 48 h)	also measured
O=C(Nc1ccc(OCc2ccc(OCCN3CCCCC3)cc2)c2ccccc12)NC1CCOCC1 [ID210127B-1]	5.46	6.13	–
COc1cc(NC(=O)Nc2ccc(OCc3ccc(OCCN4CCCCC4)cc3)c3ccccc23)ccc1F [IY210105C-1]	5.36	5.72	–
O=C(Nc1ccc(OCc2ccc(OCCN3CCCCC3)cc2)c2ccccc12)NC1CCCCC1 [ID1207B-1]	–	–	pIC50 (MDA-MB-468 cells; 48 h): 3.57; pIC50 (HepG2 cells [1]; 48 h): 3.33
O=C(Nc1ccc(F)c(F)c1)Nc1ccc(OCc2ccc(OCCN3CCCCC3)cc2)c2ccccc12 [ID210105C-1]	4.17	–	–
O=C(NCc1ccc(F)cc1)Nc1ccc(OCc2ccc(OCCN3CCCCC3)cc2)c2ccccc12 [IY210119B-1]	5.46	–	pIC50 (SMMC-7721 cells): 6.13
CNC(=O)c1cc(Oc2ccc(NC(=O)Nc3ccc(Cl)c(C(F)(F)F)c3)cc2)ccn1 [Sorafenib, reference compound]	5.21	–	pIC50 (SMMC-7721 cells): 4.52; pIC50 (HuH-7 cells): 4.76
O=C(Nc1ccc(Cl)cc1F)Nc1ccc(OCc2ccc(OCCN3CCCCC3)cc2)c2ccccc12 [IY210103B-1]	4.17	4.69	–
N#Cc1cc(OCCN2CCCCC2)ccc1COc1ccc(NC(=O)NCc2ccccc2)c2ccccc12 [ID1120D-1]	–	–	pIC50 (SMMC-7721 cells): 5.16
O=C(NCc1ccc(Cl)cc1)Nc1ccc(OCc2ccc(OCCN3CCCCC3)cc2)c2ccccc12 [IY210113C-1]	5.40	–	pIC50 (HuH-7 cells): 4.90
COc1ccc(NC(=O)Nc2ccc(OCc3ccc(OCCN4CCCCC4)cc3)c3ccccc23)cc1OC [ID1224C-1]	4.03	–	–
O=C(Nc1ccc(OC(F)(F)F)c(Cl)c1)Nc1ccc(OCc2ccc(OCCN3CCCCC3)cc2)c2ccccc12 [ID1229C-1]	4.30	4.32	–
O=C(Nc1ccc(OCc2ccc(OCCN3CCCCC3)cc2F)c2ccccc12)NC1CCCC1 [IY1215C-1]	–	5.27	–
O=C(Nc1ccccc1)Nc1ccc(OCc2ccc(OCCN3CCCCC3)cc2)c2ccccc12 [IY1223B-1]	–	4.88	–
O=C(NCc1cc(F)cc(F)c1)Nc1ccc(OCc2ccc(OCCN3CCCCC3)cc2)c2ccccc12 [IY210115B-1]	5.24	–	pIC50 (SMMC-7721 cells): 4.40
O=C(Nc1ccncc1)Nc1ccc(OCc2ccc(OCCN3CCCCC3)cc2)c2ccccc12 [IY210122C-1]	4.96	4.93	–
COc1ccc(CNC(=O)Nc2ccc(OCc3ccc(OCCN4CCCCC4)cc3)c3ccccc23)cc1 [ID210113C-1]	5.88	–	pIC50 (HuH-7 cells): 5.32
O=C(NCc1ccc(C(F)(F)F)cc1)Nc1ccc(OCc2ccc(OCCN3CCCCC3)cc2)c2ccccc12 [IY210113D-1]	5.47	–	pIC50 (HuH-7 cells): 4.86
O=C(Nc1ccc(Cl)cc1)Nc1ccc(OCc2ccc(OCCN3CCCCC3)c(F)c2)c2ccccc12 [IY210106D-1]	–	–	pIC50 (MDA-MB-468 cells; 48 h): 5.20
O=C(Nc1ccc(F)c(Cl)c1)Nc1ccc(OCc2ccc(OCCN3CCCCC3)cc2)c2ccccc12 [IY210105B-1]	4.36	4.29	–
